Data published in patent US20120034210A1, “COMPOSITIONS FOR POTENTIATING APOPOSIS SIGNALS IN TUMOUR CELLS” (INSTITUT BERGONIE, priority 2008, published 2012).
“Also recorded” adds a separate entry of the source.

Assays:
Type in all cases: cell-based, human
[1] = tested on: DISC macro-complex (Fas/FADD/Caspase-8); assay: DISC formation: Fas immunoprecipitation and Western blot; conditions: vs untreated cells
Procedure: Cells were incubated with 1 μg/ml APO1-3 for 30 minutes at 4° C. After washing, cells were incubated for 15 minutes at 4° C. (0 minutes) or at 37° C. (15 minutes) and then lysed for 30 minutes at 4° C. in a lysis buffer (25 mM HEPES pH 7.4, 1% Triton X-100, 150 mM NaCl, 2 mM EDTA, a cocktail including protease inhibitors (Sigma)). The lysed cells were then centrifugated for 15 minutes at 15000 rpm in order to eliminate genomic DNA, and the supernatant was kept. The sepharose beads which were coupled with protein A were added to the lysate and the mixture was incubated for 2 hours. The beads were recovered, washed intensively and the immunoprecipitated proteins were re-suspended in a denaturing and reducing buffer (0.01M Tris-HCl pH6.8, 10% glycerol (v/v), 85 mM sodium dodecyl sulfate (SDS), 5% (v/v) […] and 0.005% (w/v) bromophenol blue) then heated at 100° C. for 5 minutes. The samples were deposited in an acrylamide/Bisacrylamide gel and separated by electrophoresis. The proteins were transferred from the gel into a nitrocellulose membrane using a semi-dry medium transfer technique for 2 hours at constant amperage (0.8 mA/cm^2). […] After transfer, the nitrocellulose membrane was saturated with proteins for 30 minutes with a TBST buffer (50 mM Tris pH=8, 0.15M sodium chloride, 0.05% (v/v) Tween-20) containing 5% (w/v) skimmed powdered milk (TBSTM). After washing with TBST, the membrane was incubated for 2 hours with the primary antibody in TBST. The membrane was washed intensively then incubated for one hour with TBST containing the secondary peroxidase-coupled antibody. […] This solution contained a substrate metabolised by peroxidase to yield a luminescent compound, which allowed marking a radiographic film (Amersham).

[2] = tested on: Raji, BL2, Jurkat cell lines and activated PBL; assay: Apoptosis % by loss of mitochondrial membrane potential
Procedure: 2 to 4.10^4 cells were deposited in wells in a 96-well plate. The cells were incubated, in the presence of the different reactants for the times specified, at 37° C. in a final volume of 100 or 200 μl. The apoptotic cells were identified in the cellular populations by measuring mitochondrial de-polarisation. […] These potentiometric probes allowed monitoring the variations of the mitochondrial membrane potential. […] Following cell treatment with the different drugs, the former were placed in the presence of TMRM or DIOC6 at 10 nM concentration, for 20 minutes at 37° C. then the fluorescence of the cells was analysed by flow cytometry.

[3] = tested on: intracellular calcium concentration; assay: Intracellular Ca2+ concentration, indo-1 (micro)spectrofluorimetry
Procedure: Principle: [Ca^2+]i was measured by microspectrofluorimetry using a calcium sensitive fluorescent probe: indo-1. When excited at 360 nm wavelength, the so-called monoexcitation/double emission indo-1 probe transmitted back in a spectrum ranging from 400 to 500 nm. Binding of Ca^2+ to indo-1 caused displacement of the emission spectrum after excitation. The emission maximum in the unbound form was located around 480 nm. The emission of the complexed form was around 405 nm. An increase of calcium concentration thus caused the emission to increase to 405 nm and the emission to decrease to 480 nm. The ratio of both fluorescence intensities allowed to be independent from the quantity of the probe and to determine the [Ca^2+]i according to the Grynkiewicz equation:
[Ca^2+]i(nM)=Kd.β×(R−Rmin)/(Rmax−R)
Rmax, Rmin and Kd. β were determined by combining electrophysiology (patch clamp) and spectrofluorimetry. Rmax was determined by placing in the patch pipette a medium containing 10 mM CaCl2. Rmin was obtained by placing as an intrapipette solution a calcium-deprived medium (10 mM EGTA).
The cells were then rinsed with HBSS (800 rpm centrifugation for 2 minutes) and placed in an observation chamber on a glass coverslip. […] The excitation light is supplied by a Xenon lamp (100W). […] The substances to be tested were applied using a glass pipette positioned at some twenty μm of the studied cell and connected to a pneumatic system.
The principle as well as the loading of the cells were identical with the measurement on single cells. In such a case, approx. 40,000 cells were placed in a quartz tub under constant agitation. The tub was then placed in a Hitachi spectrofluorimeter whereof the excitation monochromator was set to 350 nm. […] The signals were transmitted to a computer via an analogue/digital converter. So as to be able to apply the Grynkiewicz equation (see above) and translate the fluorescence ratios measured in calcium values, the calibration parameters were entered into the software. The substances to be tested were applied directly in the tube under constant agitation.

[4] = tested on: CD95; assay: CD95 capping (CD95-CAP), fluorescence confocal microscopy; conditions: leukemic cell lines; culture up to 24 hours
Procedure: The cells were left to adhere on a slide pre-treated with poly-L-lysin (ESCO, VWR) for 5 minutes then incubated with the different reactants. The cells activated with the anti-Fas APO1-3 agonist antibody were washed and marked directly with the anti-mouse secondary antibody coupled with Alexa555 fluorochrome. The cells incubated with Rituximab (anti-CD20) were washed in a cold PBS buffer then fixed with a PBS/4% PFA (paraformaldehyde) solution for 15 min. […] The cells were washed in PBS medium then the slide was dried and the cells were placed in a mounting medium, Fluoroprep (Biomerieux) and analysed by fluorescence confocal microscopy (LSM SP5, Leica, Germany) with an x63 zoom. The DAPI (200 ng/ml) allowed colouring the nuclei.

[5] = target: caspase-8; assay: Caspase-8 activation/cleavage
[6] = tested on: CD95; assay: CD95 expression; conditions: 2-APB or BAPTA-AM regimens
Procedure: This technique allowed detecting the presence of a protein on the cell surface. All the steps took place at 4° C. so as to reduce membrane proteins endocytosis and loss of cell labelling.
Plasma membrane of the cells (10^6 cells per marking) was saturated for 5 minutes in 1 ml PBS containing 1% (w/v) BSA (bovine serum albumin) and 1% (v/v) foetal veal serum (FVS). This solution was used for washings and antibody dilutions.
The cells were incubated for 30 minutes with 50 μl primary antibody (anti-Fas DX2 clone at 10 μg/ml), washed twice with the PBS/BSA/FCS solution, then incubated with 50 μl of a secondary antibody coupled with phycoerythrin for 30 minutes. After 3 washings, the cells were re-suspended in 200 μl PBS/BSA/SVF and analysed immediately by flow cytometry (FACsCalibur, BD Biosciences). The fluorescence intensity was analysed with the Cellquest software.

In the case of CC(=O)OCOC(=O)CN(CC(=O)OCOC(C)=O)c1ccccc1OCCOc1ccccc1N(CC(=O)OCOC(C)=O)CC(=O)OCOC(C)=O [BAPTA-AM, 1,2-bis-(o-Aminophenoxy)ethane-N,N,N′,N′-tetraacetic tetra-(acetoxymethyl) acid Ester], the “DISC formation / FADD recruitment upon CD95 stimulation” value ([1]; H9, Jurkat, activated PBTs, non-cytotoxic concentrations) is reported as “dramatically improved the DISC formation; also recorded: induction of DISC formation”, the “formation of the DISC macro-complex” value ([1]; H9 cells, BAPTA-AM 1-10 μM or ionomycine 1 μM pre-incubation, then anti-Fas APO1-3 1 μg/ml 15 min 37° C.) is reported as “enhanced formation of the DISC macro-complex” and the “potentiation of apoptotic signals mediated by edelfosine or Rituximab” value ([2]; B lymphoma cell lines, BAPTA-AM 1 μM pre-incubation) is reported as “allowed potentiating apoptotic signals”. The “apoptotic signal with Rituximab associated with BAPTA-AM” value ([2]; BL2 cell line, deprived of Fas receptor, Rituximab resistant) was “no increase in the apoptotic signal has been observed”, the “increase in intracellular calcium in response to extracellular 3 mM Ca2+” value ([3]; Raji, BAPTA-AM 10 μM pretreatment) was “smaller increase in the intracellular calcium concentration” and the “CD95-mediated peak of calcium” value ([3]; non-cytotoxic concentrations, CD95 stimulation) was “totally abrogated the CD95-mediated peak of calcium”. For the same compound, the “basal [Ca2+]i” value ([3]; pre-incubation of cells) was “induced a faint decrease in the basal [Ca^2+]i”, the CD95-CAP formation [4] was “drives CD95-CAP” and the “kinetic of caspase-8 cleavage upon CD95L” value ([5]; T and B-cell lines) was “accelerated the cleavage of the initiator caspase-8”. For the same compound, the “caspase-8 activation or mitochondrial depolarization by the agent alone” value ([5]; during 60 minutes treatment, no CD95L) was “no trace of caspase-8 activation or mitochondrial depolarization was detected” and the “expression of CD95” value [6] was “did not modify the expression of CD95”.
